The values below come from patent publication US6911468B2, “Tyrosine phosphatase inhibitors” (Takeda Chemical Industries, Ltd., priority 2000, dated 2005).

In this test the target is T1, PTP1B (Homo sapiens, UniProt P18031).
T1 construct: in order to express 1-321 amino acid region encoding enzyme active domain of PTP1B; made in house; host or cells: E. coli BL21 DE3 pLysS
T1 sequence (P18031 1-321): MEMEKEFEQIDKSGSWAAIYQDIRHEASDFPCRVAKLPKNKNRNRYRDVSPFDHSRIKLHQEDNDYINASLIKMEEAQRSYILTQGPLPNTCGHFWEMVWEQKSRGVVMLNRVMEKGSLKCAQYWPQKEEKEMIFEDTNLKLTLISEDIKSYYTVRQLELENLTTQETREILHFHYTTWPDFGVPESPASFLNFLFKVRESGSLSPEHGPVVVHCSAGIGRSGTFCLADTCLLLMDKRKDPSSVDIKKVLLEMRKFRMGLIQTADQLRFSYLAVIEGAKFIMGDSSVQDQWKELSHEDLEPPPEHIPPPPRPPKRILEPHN
Nature of the test: Measurement of PTP1B Inhibitory Activity (dephosphorylation of p-nitrophenylphosphate, absorbance at 405 nm). It is filed as biochemical. The following applies: PTP1B enzyme active domain (1-321 amino acid, 6 histidine residues at C-terminal), pNPP substrate, pH 6.5, 37° C. for 1 hour. Here is the method:
Based on the sequence of human PTP-1B registered in Genbank (M31724) database, primer 1 and primer 2 were synthesized, and PTP1B cDNA was amplified from human skeletal muscle cDNA library (Clonetech, Inc. HL5002a) according to PCR method using these primers. The cycle of reactions at 98° C. for 10 seconds, at 58° C. for 30 seconds and at 72° C. for 90 seconds was repeated 35 cycles. The PCR reaction product (1322 bp) was cloned to pT7 Blue-T vector (Novagen, Inc.) to identify the base sequence.
Human PTP 1B cDNA (1322 bp) (100 ng) was amplified with primer 3 and primer 4 in order to express 1-321 amino acid region encoding enzyme active domain of PTP1B. The PCR reaction product (976 bp) was cloned to pT7 Blue-T vector (Novagen, Inc.) to identify the base sequence.
The pT7 Blue-T vector-human PTP1B cDNA (976 bp) was cleaved with restriction enzymes NdeI and SalI (Takara Shuzo Co., Ltd.) and subjected to electrophoresis using 0.7% agarose gel, and a 969 bp fragment was excised and purified. The fragment was introduced into pET32a (+) vector (Novagen, Inc.) cleaved with restriction enzymes NdeI and XhoI (Takara Shuzo Co., Ltd.), to constitute a vector pET32a (+)-human PTP1B cDNA (969 bp), which expresses PTP1B (321 amino acid) with 6 histidine residues binded to a C-terminal thereof under a control of T7 lac promotor.
E.coli BL21 DE3 pLysS (Novagen, Inc.) was transformed with the pET32a (+)-human PTP 1B cDNA (969 bp) to give an ampicillin (50 μg/ml) resistant bacterium. This was shake cultured at 37° C. using 5L of 2xYT medium (ampicillin (50 μg/ml)). When OD600nm reached to 0.5, IPTG (Isopropyl b-D-Thiogalactoside) was added to the culture medium so as to be 1 mM in order to induce the expression of protein, and this medium was further cultured at 37° C. overnight. The bacterium was collected by centrifugation (8000 rpm, 10 minutes, 4° C.).
The bacterium was suspended in lysis buffer (50 ml) (20 mM Tris HCl (pH 8.0), 0.5 M NaCl, 1 mM PMSF, 5 mM benzamidine, Lysozyme 5 mg) and crushed by sonication. To the supernatant after centrifuging (12000 rpm, 10 minutes, 4° C.) was added imidazole so as to be 50 mM and the mixture was mixed with His Bind resin (Novagen, Inc.) binded with Ni ion (4° C., overnight). The mixture was washed with 200 ml of (20 mM Tris HCl (pH 8.0), 0.5 M NaCl, 1 mM PMSF, 5 mM benzamidine, 50 mM imidazole), eluted with (20 mM Tris HCl (pH 8.0), 0.5 M NaCl, 1 mM PMSF, 5 mM benzamidine, 400 mM imidazole) and concentrated by centrifugation using Ultrafree-15 Biomax-50 (MILLIPORE Corp.) (11 mg/ml, 4ml). The purified protein (PTP1B) was identified by Western blotting method using SDS-PAGE, coomassie Blue stain and anti-PTP1B antibody (UBI Inc.).
The PTP1B inhibitory activity of the test compound was evaluated by measuring the ability of the test compound to dephosphorylate p-nitrophenylphosphate (pNPP) (a change of the absorbance at 405 nm).
To a buffer for measurement of the activity (0.1 M sodium acetate (pH 6.5), 1 mM EDTA, 10 mM DTT) (10 ml) was added PTP1B enzyme solution (2 μl) and the mixture was added to each well of a 96-well microtiter plate (100 μl each). A solution of the test compound in DMSO (10 μl) and 2 mM pNPP/the buffer for measurement of the activity (90 μl) were then added to each well, and the absorbance at 405 nm was measured. After keeping at 37° C. for 1 hour, the absorbance was measured again to evaluate a change of the absorbance. Regarding the change of the absorbance in the absence of the test compound as 100%, the concentration of the compound necessary for 50% inhibition (IC50 value) was calculated.

Molecules are shown by their SMILES. pIC50: −log10 of the molar value.

`O=C(O)[C@@H](Cc1ccccc1)Oc1ccc(-c2cccn2-c2ccccc2)cc1` [Example 36, (2R)-2-[4-(1-Phenyl-1H-pyrrol-2-yl)phenoxy]-3-phenylpropanoic acid]: the pIC50 is 5.84. As to `Cc1ccc(-c2ccc(O[C@H](Cc3ccccc3)C(=O)O)cc2)n1-c1ccc(C(F)(F)F)cc1` [Example 46, (2R)-2-{4-[5-Methyl-1-(4-trifluoromethylphenyl)-1H-pyrrol-2-yl]phenoxy}-3-phenylpropanoic acid], the pIC50 was 6.40. Compound `Cc1cc(C)n(-c2ccc(Br)cc2)c1-c1ccc(O[C@H](Cc2ccccc2)C(=O)O)cc1` [Example 26, (2R)-2-{4-[1-(4-Bromophenyl)-3,5-dimethyl-1H-pyrrol-2-yl]phenoxy}-3-phenylpropanoic acid] showed a pIC50 of 6.38. The same measure for `Cc1cc(-c2ccccc2)c(-c2ccc(O[C@H](Cc3ccccc3)C(=O)O)cc2)n1-c1ccc(Br)cc1` [Example 30, (2R)-2-{4-[1-(4-Bromophenyl)-5-methyl-3-phenyl-1H-pyrrol-2-yl]phenoxy}-3-phenylpropanoic acid]: 6.14; for `O=C(O)[C@@H](Cc1ccccc1)Oc1ccc(-c2cccn2-c2ccc(Cl)cc2)cc1` [Example 40, (2R)-2-{4-[1-(4-Chlorophenyl)-1H-pyrrol-2-yl]phenoxy}-3-phenylpropanoic acid]: 5.92. The value for `O=C(O)[C@@H](Cc1ccccc1)Oc1ccc(-c2cccn2-c2ccc(C(F)(F)F)cc2)cc1` [Example 42, (2R)-2-{4-[1-(4-Trifluoromethylphenyl)-1H-pyrrol-2-yl]phenoxy}-3-phenylpropanoic acid] was 5.31; that for `Cc1ccc(-n2cccc2-c2ccc(O[C@H](Cc3ccccc3)C(=O)O)cc2)cc1` [Example 38, (2R)-2-{4-[1-(4-Methylphenyl)-1H-pyrrol-2-yl]phenoxy}-3-phenylpropanoic acid] was 5.80. Compound `Cc1cc(-c2ccc(O[C@H](Cc3ccccc3)C(=O)O)cc2)n(-c2ccc(Br)cc2)c1C` [Example 24, (2R)-2-{4-[1-(4-Bromophenyl)-4,5-dimethyl-1H-pyrrol-2-yl]phenoxy}-3-phenylpropanoic acid] showed a pIC50 of 6.49. The compound `CCCCCCCCCCn1c(C)ccc1-c1ccc(O[C@H](Cc2ccccc2)C(=O)O)cc1` [Example 62, (2R)-2-[4-(1-Decyl-5-methyl-1H-pyrrol-2-yl)phenoxy]-3-phenylpropanoic acid] gave a negative-log IC50 (pIC50) of 6.68. On to `Cc1ccc(-c2ccc(O[C@H](Cc3ccccc3)C(=O)O)cc2)n1-c1ccc(Cl)cc1` [Example 44, (2R)-2-{4-[1-(4-chlorophenyl)-5-methyl-1H-pyrrol-2-yl]phenoxy}-3-phenylpropanoic acid], for which the negative logarithm of the IC50 (pIC50) is 6.48. Against the preceding compound, the pIC50 is 0.20 log units lower. With `CCCc1cc(C)n(-c2ccc(Br)cc2)c1-c1ccc(O[C@H](Cc2ccccc2)C(=O)O)cc1` [Example 28, (2R)-2-{4-[1-(4-Bromophenyl)-5-methyl-3-propyl-1H-pyrrol-2-yl]phenoxy}-3-phenylpropanoic acid], the pIC50 is 6.32. As to `Cc1ccc(-c2ccc(O[C@H](Cc3c[nH]c4ccccc34)C(=O)O)cc2)n1-c1ccc(Br)cc1` [Example 32, (2R)-2-{4-[1-(4-Bromophenyl)-5-methyl-1H-pyrrol-2-yl]phenoxy}-3-(1H-indol-3-yl)propanoic acid], the pIC50 is 5.68.

The compound `CCc1ccc(-c2ccc(O[C@H](Cc3ccccc3)C(=O)O)cc2)n1-c1ccc(Br)cc1` [Example 20, (2R)-2-{4-[1-(4-bromophenyl)-5-ethyl-1H-pyrrol-2-yl]phenoxy}-3-phenylpropanoic acid] gave a pIC50 of 6.28. `CCCc1ccc(-c2ccc(O[C@H](Cc3ccccc3)C(=O)O)cc2)n1-c1ccc(Br)cc1` [Example 34, (2R)-2-{4-[1-(4-Bromophenyl)-5-propyl-1H-pyrrol-2-yl]phenoxy}-3-phenylpropanoic acid]: the pIC50 was 5.96.

In the case of `CCCCCCCCCn1c(C)ccc1-c1ccc(O[C@H](Cc2ccccc2)C(=O)O)cc1` [Example 60, (2R)-2-[4-(5-Methyl-1-nonyl-1H-pyrrol-2-yl)phenoxy]-3-phenylpropanoic acid], the pIC50 was 6.44. Turning to `Cc1ccc(-c2cc(Br)c(O[C@H](Cc3ccccc3)C(=O)O)c(Br)c2)n1-c1ccc(Br)cc1` [Example 8, (2R)-2-{2,6-Dibromo-4-[1-(4-bromophenyl)-5-methyl-1H-pyrrol-2-yl]phenoxy}-3-phenylpropanoic acid], the pIC50 is 6.42. As to `Cc1ccc(-c2ccc(O[C@H](Cc3ccccc3)C(=O)O)cc2)n1-c1ccc(Br)cc1` [Example 6, (2R)-2-{4-[1-(4-Bromophenyl)-5-methyl-1H-pyrrol-2-yl]phenoxy}-3-phenylpropanoic acid], the pIC50 is 6.30. The pIC50 values of the last two compounds are within 0.2 log units of each other. `Cc1ccc(-c2ccc(O[C@H](Cc3ccccc3)C(=O)O)cc2)n1Cc1ccccc1` [Example 48, (2R)-2-[4-(1-Benzyl-5-methyl-1H-pyrrol-2-yl)phenoxy]-3-phenylpropanoic acid] showed a pIC50 of 6.44. The pIC50 values of the last two compounds are within 0.2 log units of each other. `Cc1ccc(-c2ccc(O[C@H](Cc3ccccc3)C(=O)O)cc2)n1CCc1ccc(Br)cc1` [Example 52, (2R)-2-(4-{1-[2-(4-bromophenyl)ethan-1-yl]-5-methyl-1H-pyrrol-2-yl}phenoxy)-3-phenylpropanoic acid] showed a negative logarithm of the IC50 (pIC50) of 6.51. The pIC50 values of the last two compounds are within 0.2 log units of each other.

The compound `Cc1ccc(-c2ccc(/C=C/C(=O)O)cc2)n1-c1ccc(/C=C/C(=O)O)cc1` [Example 4, (2E)-3-[4-(1-{4-[(1E)-2-Carboxyethenyl]phenyl}-5-methyl-1H-pyrrol-2-yl)phenyl]-2-propenoic acid] gave a pIC50 of 5.19. As to `CCCCCCCCn1c(C)ccc1-c1ccc(O[C@H](Cc2ccccc2)C(=O)O)cc1` [Example 58, (2R)-2-[4-(5-Methyl-1-octyl-1H-pyrrol-2-yl)phenoxy]-3-phenylpropanoic acid], the pIC50 is 6.47. The compound `Cc1ccc(-c2ccc(-c3ccc(O[C@H](Cc4ccccc4)C(=O)O)cc3)cc2)n1-c1ccc(Br)cc1` [Example 10, (2R)-2-({4′-[1-(4-Bromophenyl)-5-methyl-1H-pyrrol-2-yl][1,1′-biphenyl]-4-yl}oxy)-3-phenylpropanoic acid] had a pIC50 of 6.47.

Turning to `Cc1ccc(-c2ccc(O[C@H](Cc3ccccc3)C(=O)O)cc2)n1Cc1cccc(Oc2ccccc2)c1` [Example 54, (2R)-2-{4-[1-(3-phenoxybenzyl)-5-methyl-1H-pyrrol-2-yl]phenoxy}-3-phenylpropanoic acid], the pIC50 is 6.51. The same measure for `CCCCCCCCCCCn1c(C)ccc1-c1ccc(O[C@H](Cc2ccccc2)C(=O)O)cc1` [Example 64, (2R)-2-[4-(5-Methyl-1-undecyl-1H-pyrrol-2-yl)phenoxy]-3-phenylpropanoic acid]: 6.64.

One may read the pIC50 as the IC50 on a negative log10 scale, so that one unit is a factor of ten. Higher therefore signals a low IC50.
